Source: patent US20130035326A1 (AMBIT BIOSCIENCES CORPORATION, priority 2009, published 2013)

Experiments:
KIT kinase = target: T1, KIT kinase (Homo sapiens, UniProt P10721); test: Competition binding assay, KIT Kd
T1 construct: made in house; host or cells: T7 phage display or HEK-293 cells
Protocol: (§1) In certain embodiments, competition binding assays were performed as described in Fabian et al., Nature Biotechnology 2005, 23,329-336.
(§2) Competition binding assays used herein were developed, validated and performed as described in Fabian et al., Nature Biotechnology 2005, 23,329-336. Kinases were produced as fusions to T7 phage (See, Fabian et al. or WO04/015142) or alternatively, the kinases were expressed in HEK-293 cells and subsequently tagged with DNA for PCR detection (See, WO08/005,310). For the binding assays, streptavidin-coated magnetic beads were treated with biotinylated affinity ligands for 30 min at room temperature to generate affinity resins. The liganded beads were blocked with excess biotin and washed with blocking buffer (SeaBlock (Pierce), 1% BSA, 0.05% Tween 20, 1 mM DTT) to remove unbound ligand and to reduce non-specific binding. Binding reactions were assembled by combining kinase, liganded affinity beads, and test compounds in 1× binding buffer (20% SeaBlock, 0.17×PBS, 0.05% Tween 20, 6 mM DTT). Test compounds were prepared as 100× stocks in DMSO and diluted into the aqueous environment. Kds were determined using an eleven point threefold serial dilutions. DMSO or control compounds were was added to control assays lacking a test compound. Primary screen assays were performed in polypropylene 384-well plates in a final volume of 20-40 μL, while Kd determinations were performed in polystyrene 96-well plates in a final volume of 135 μL. The assay plates were incubated at room temperature with shaking for 1 hour to allow the binding reactions to reach equilibrium, and the affinity beads were washed extensively with wash buffer (1×PBS, 0.05% Tween 20) to remove unbound protein. The beads were then resuspended in elution buffer (1×PBS, 0.05% Tween 20, 0.5 μM non-biotinylated affinity ligand) and incubated at room temperature with shaking for 30 min. The kinase concentration in the eluates was measured by quantitative PCR.

FLT3 kinase = target: T2, FLT3 kinase (Homo sapiens, UniProt P36888); test: Competition binding assay, FLT3 Kd
T2 construct: made in house; host or cells: T7 phage display or HEK-293 cells
T2 sequence (P36888 27-993): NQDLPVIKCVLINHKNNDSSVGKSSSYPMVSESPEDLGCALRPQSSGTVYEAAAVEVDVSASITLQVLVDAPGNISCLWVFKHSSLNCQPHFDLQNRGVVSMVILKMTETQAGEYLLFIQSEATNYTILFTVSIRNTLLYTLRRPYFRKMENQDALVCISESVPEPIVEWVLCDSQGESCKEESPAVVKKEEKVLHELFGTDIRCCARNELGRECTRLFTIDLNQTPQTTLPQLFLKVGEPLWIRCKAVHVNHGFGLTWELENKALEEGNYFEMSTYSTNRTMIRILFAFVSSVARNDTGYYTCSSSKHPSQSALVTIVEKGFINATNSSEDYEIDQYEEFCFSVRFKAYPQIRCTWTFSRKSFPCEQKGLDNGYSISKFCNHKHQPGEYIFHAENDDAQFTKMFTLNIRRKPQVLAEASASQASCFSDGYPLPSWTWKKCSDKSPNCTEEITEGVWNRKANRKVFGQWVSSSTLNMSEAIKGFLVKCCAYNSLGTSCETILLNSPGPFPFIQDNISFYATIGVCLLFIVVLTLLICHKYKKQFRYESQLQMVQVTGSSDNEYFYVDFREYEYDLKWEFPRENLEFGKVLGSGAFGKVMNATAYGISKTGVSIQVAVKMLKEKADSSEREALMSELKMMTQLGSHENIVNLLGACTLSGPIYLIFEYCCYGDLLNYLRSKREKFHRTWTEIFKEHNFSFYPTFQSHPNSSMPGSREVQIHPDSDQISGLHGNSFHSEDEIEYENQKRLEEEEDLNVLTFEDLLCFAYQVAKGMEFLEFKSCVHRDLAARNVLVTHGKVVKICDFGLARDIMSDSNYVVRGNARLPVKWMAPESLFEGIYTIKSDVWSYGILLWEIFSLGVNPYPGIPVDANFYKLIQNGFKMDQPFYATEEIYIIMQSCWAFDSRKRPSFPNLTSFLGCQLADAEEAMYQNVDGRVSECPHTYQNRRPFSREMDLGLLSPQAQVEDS
Protocol: as §1, §2

MV4-11 cells = test: MV4-11 cell proliferation assay (Alamar Blue); assay type: cell-based; details: Homo sapiens, MV4-11, 72 h, 3 days incubation
Protocol: The compounds disclosed herein were tested in an MV4-11 cell proliferation assay to determine their cellular potency against Flt3. MV4-11 cells carry ITD mutation within juxtamembrane domain of Flt3 kinase which renders the kinase constitutively active. […] This assay measures the potency of compounds as Flt3 inhibitors by measuring the reduction of Alamar Blue reagent by viable cells.
MV4-11 cells were grown in an incubator at 37° C. under 5% CO2 in Iscove's media (Celgro) with 10% FBS. The cell density was kept between 1e5 and 8e5 cells/mL.
On day one of the experiment, cells were harvested and spun at 500 g for 5 min at 4° C., the supernatant aspirated and the cells resuspended in Iscove's media with 0.5% FBS. Cell density was maintained at 7.5e5 to achieve maximum viability of the cells. The resuspended cells were incubated at 37° C. in 5% CO2 overnight.
On day two of the experiment, cells were diluted to 6.4e5/mL with Iscove's media with 0.5% FBS. 100 μL of the cell suspension (64,000 cells) were aliquoted into each well of a 96-well TC-treated plate. Compounds were added at 9 different concentrations, with half-log intervals alongside a control reference compound serving as a positive control. Final DMSO concentration was kept at 0.5% and final volume at 200 μL. The cells were then incubated at 37° C. under 5% CO2 for 3 days.
On day five of the experiment, 40 μL of Alamar Blue reagent was added to each well and the mixture was allowed to incubate for 3 hours. Alamar Blue fluorescence was measured using SoftMax Pro software at 560 nm (excitation) and 590 nm (emission). IC50s were generated as an average of duplicates and represents the concentration of test compound that achieves 50% inhibition of cellular proliferation compared to negative control.

CSF-1R kinase = target: T3, CSF-1R kinase (Homo sapiens, UniProt P07333); test: Competition binding assay, CSF-1R Kd
T3 construct: made in house; host or cells: T7 phage display or HEK-293 cells
T3 sequence (P07333 20-972): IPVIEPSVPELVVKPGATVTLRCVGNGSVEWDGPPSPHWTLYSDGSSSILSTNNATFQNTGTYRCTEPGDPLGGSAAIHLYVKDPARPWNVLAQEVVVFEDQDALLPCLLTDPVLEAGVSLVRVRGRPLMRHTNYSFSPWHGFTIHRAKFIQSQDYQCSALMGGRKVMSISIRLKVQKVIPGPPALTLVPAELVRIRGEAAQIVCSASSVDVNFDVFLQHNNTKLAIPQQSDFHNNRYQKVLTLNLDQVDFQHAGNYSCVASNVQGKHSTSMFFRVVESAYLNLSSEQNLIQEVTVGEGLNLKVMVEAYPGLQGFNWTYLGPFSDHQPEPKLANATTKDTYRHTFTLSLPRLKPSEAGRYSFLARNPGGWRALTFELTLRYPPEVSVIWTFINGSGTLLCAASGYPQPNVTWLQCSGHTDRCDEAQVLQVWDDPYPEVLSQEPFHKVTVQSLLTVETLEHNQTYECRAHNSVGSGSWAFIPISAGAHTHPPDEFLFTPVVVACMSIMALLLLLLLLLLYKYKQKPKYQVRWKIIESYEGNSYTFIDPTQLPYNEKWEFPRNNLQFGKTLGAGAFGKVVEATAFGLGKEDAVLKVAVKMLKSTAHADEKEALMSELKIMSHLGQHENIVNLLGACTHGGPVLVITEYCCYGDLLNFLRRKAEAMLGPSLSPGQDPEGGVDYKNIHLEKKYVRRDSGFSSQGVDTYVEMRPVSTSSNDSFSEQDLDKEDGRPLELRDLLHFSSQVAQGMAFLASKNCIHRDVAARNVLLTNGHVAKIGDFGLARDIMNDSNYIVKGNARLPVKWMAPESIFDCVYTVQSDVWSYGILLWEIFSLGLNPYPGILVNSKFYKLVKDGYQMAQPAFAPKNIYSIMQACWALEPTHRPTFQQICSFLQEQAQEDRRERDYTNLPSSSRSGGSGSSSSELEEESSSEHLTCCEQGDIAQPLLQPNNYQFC
Protocol: as §1, §2

T1 sequence (P10721 26-976): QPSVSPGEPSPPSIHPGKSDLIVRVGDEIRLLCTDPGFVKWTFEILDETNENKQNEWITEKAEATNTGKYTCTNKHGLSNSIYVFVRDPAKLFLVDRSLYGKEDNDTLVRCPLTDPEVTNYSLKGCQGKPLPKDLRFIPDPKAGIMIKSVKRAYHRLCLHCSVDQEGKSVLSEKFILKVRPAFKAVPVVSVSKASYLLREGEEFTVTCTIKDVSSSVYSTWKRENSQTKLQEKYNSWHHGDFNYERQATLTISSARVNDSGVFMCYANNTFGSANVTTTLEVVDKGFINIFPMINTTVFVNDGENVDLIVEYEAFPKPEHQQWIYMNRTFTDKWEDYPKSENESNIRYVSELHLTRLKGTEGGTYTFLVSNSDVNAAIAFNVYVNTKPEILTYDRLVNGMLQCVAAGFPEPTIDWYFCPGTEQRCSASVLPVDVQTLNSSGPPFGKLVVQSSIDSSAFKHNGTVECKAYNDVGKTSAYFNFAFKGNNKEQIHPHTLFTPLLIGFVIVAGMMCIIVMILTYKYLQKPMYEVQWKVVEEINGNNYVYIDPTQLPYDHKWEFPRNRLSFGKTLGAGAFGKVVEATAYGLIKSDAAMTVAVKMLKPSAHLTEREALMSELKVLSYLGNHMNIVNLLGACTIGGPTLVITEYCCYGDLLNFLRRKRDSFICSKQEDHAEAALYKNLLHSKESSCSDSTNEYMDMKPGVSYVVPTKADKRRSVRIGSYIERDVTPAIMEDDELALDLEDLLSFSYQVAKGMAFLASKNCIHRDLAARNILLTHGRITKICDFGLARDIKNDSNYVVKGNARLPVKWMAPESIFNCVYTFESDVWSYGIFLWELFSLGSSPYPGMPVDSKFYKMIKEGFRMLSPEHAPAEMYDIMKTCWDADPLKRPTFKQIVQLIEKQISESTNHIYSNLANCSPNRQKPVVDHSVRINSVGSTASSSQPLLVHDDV

SMILES | Kd (KIT kinase) [nM] | Kd (FLT3 kinase) [nM] | IC50 (MV4-11 cells) [nM] | Kd (CSF-1R kinase) [nM]
CC(C)(F)c1cc(NC(=O)Nc2ccc(-c3ccc(N)nc3)cn2)on1 [Example 42, 1-(6′-amino-3,3′-bipyridin-6-yl)-3-(3-(2-fluoropropan-2-yl)isoxazol-5-yl)urea] | ≤ 1 | 1 to 10 | 10 to 100 | ≤ 10
CC(C)(c1cc(NC(=O)Nc2ccc(-c3ccc(N)nc3)cn2)no1)C(F)(F)F [Example 43, 1-(6′-amino-3,3′-bipyridin-6-yl)-3-(5-(1,1,1-trifluoro-2-methylpropan-2-yl)isoxazol-3-yl)urea] | ≤ 1 | ≤ 1 | 1 to 10 | ≤ 10
COc1cc(-c2ccc(N)nc2)ccc1NC(=O)Nc1cc(C(C)(CF)CF)on1 [Example 68, 5-(4-(3-(5-(1,3-difluoro-2-methylpropan-2-yl)isoxazol-3-yl)ureido)-3-methoxyphenyl)pyridin-2-aminium methanesulfonate] | 1 to 10 | 1 to 10 | 10 to 100 | ≤ 10
COc1cc(-c2ccc(N)nc2)ccc1NC(=O)Nc1cc(C(C)(C)C)on1 [Example 69, 5-(4-(3-(5-tert-butylisoxazol-3-yl)ureido)-3-methoxyphenyl)pyridin-2-aminium methanesulfonate] | ≤ 1 | 1 to 10 | 10 to 100 | ≤ 10
CC(C)(C)c1cc(NC(=O)Nc2ccc(-c3ccc(N)nc3)cc2)on1 [Example 70, 5-(4-(3-(3-tert-butylisoxazol-5-yl)ureido)phenyl)pyridin-2-aminium methanesulfonate] | 1 to 10 | 1 to 10 | ≤ 1 | ≤ 10
CC(C)(c1cc(NC(=O)Cc2ccc(-c3ccc(N)nc3)cc2)no1)C(F)(F)F [Example 72, 5-(4-(2-oxo-2-(5-(1,1,1-trifluoro-2-methylpropan-2-yl)isoxazol-3-ylamino)ethyl)phenyl)pyridin-2-aminium acetate] | 1 to 10 | ≤ 1 | ≤ 1 | ≤ 10
CC(C)(C)c1cc(NC(=O)Cc2ccc(-c3cnc(N)nc3)cc2)no1 [Example 74, 2-(4-(2-aminopyrimidin-5-yl)phenyl)-N-(5-tert-butylisoxazol-3-yl)acetamide] | 1 to 10 | ≤ 1 | ≤ 1 | ≤ 10
CC(C)(C)c1cc(NC(=O)Cc2ccc(-c3cnc(NCCN4CCOCC4)nc3)cc2)no1 [Example 75, N-(5-tert-butylisoxazol-3-yl)-2-(4-(2-(2-morpholinoethylamino)pyrimidin-5-yl)phenyl)acetamide] | 1 to 10 | ≤ 1 | ≤ 1 | ≤ 10
CC(C)(C)c1cc(NC(=O)Cc2ccc(-c3ccc(N)nc3)cn2)no1 [Example 76, 2-(6′-amino-3,3′-bipyridin-6-yl)-N-(5-tert-butylisoxazol-3-yl)acetamide] | ≤ 1 | ≤ 1 | 1 to 10 | ≤ 10
CC(C)(C)c1cc(NC(=O)Cc2ccc(-c3cnc(N)nc3)cn2)no1 [Example 77, 2-(5-(2-aminopyrimidin-5-yl)pyridin-2-yl)-N-(5-tert-butylisoxazol-3-yl)acetamide] | 1 to 10 | ≤ 1 | 1 to 10 | ≤ 10
CC(C)(C)c1cc(NC(=O)Cc2ccc(-c3cnc(N)nc3)cc2F)no1 [Example 79, 2-(4-(2-aminopyrimidin-5-yl)-2-fluorophenyl)-N-(5-tert-butylisoxazol-3-yl)acetamide] | 1 to 10 | ≤ 1 | ≤ 1 | ≤ 10
CC(C)(CO)c1cc(NC(=O)Nc2ccc(-c3ccc(N)nc3)cc2)no1 [Example 80, 1-(4-(6-aminopyridin-3-yl)phenyl)-3-(5-(1-hydroxy-2-methylpropan-2-yl)isoxazol-3-yl)urea] | ≤ 1 | ≤ 1 | 1 to 10 | ≤ 10
